# Data published in ChEMBL document CHEMBL1155774, “Pharmacokinetics, safety, and hydrolysis of oral pyrroloquinazolinediamines administered in single and multiple doses in rats” (Antimicrob Agents Chemother, 2007).
# Assays:
# Rattus norvegicus [1] = assay: Anorexic toxicity in intragastrically dosed Sprague-Dawley rat assessed as ratio of body weight change to day of weight change at 780 umol/kg administered as single dose after 14 days; assay type: organism-based; details: in vivo, po, 336 h
# Rattus norvegicus [2] = assay: Bioavailability in intragastrically dosed Sprague-Dawley rat assessed as pyrroloquinazolinediamine level at 47.6 umol/kg administered daily for 3 days measured on day 1; assay type: ADME, organism-based; details: in vivo, po, 72 h
# Rattus norvegicus [3] = assay: Anorexic toxicity in intragastrically dosed Sprague-Dawley rat assessed as ratio of body weight change to day of weight change at 47.6 umol/kg administered daily for 3 days measured after 14 days; assay type: organism-based; details: in vivo, po, 336 h
# Rattus norvegicus [4] = assay: Elimination half life in intragastrically dosed Sprague-Dawley rat assessed as pyrroloquinazolinediamine level at 47.6 umol/kg administered daily for 3 days measured on day 1; assay type: ADME, organism-based; details: in vivo, po, 72 h
# Rattus norvegicus [5] = assay: Anorexic toxicity in intragastrically dosed Sprague-Dawley rat assessed as ratio of body weight change to day of weight change at 2340 umol/kg administered as single dose after 14 days; assay type: organism-based; details: in vivo, po, 336 h
# Rattus norvegicus [6] = assay: Cmax in intragastrically dosed Sprague-Dawley rat assessed as pyrroloquinazolinediamine level at 47.6 umol/kg administered daily for 3 days measured on day 3; assay type: ADME, organism-based; parameters: dose 47.6 umol/kg, route intragastric; details: in vivo, po, 72 h
# Rattus norvegicus [7] = assay: Elimination half life in intragastrically dosed Sprague-Dawley rat assessed as pyrroloquinazolinediamine level at 47.6 umol/kg administered daily for 3 days measured on day 3; assay type: ADME, organism-based; details: in vivo, po, 72 h
# Rattus norvegicus [8] = assay: Anorexic toxicity in intragastrically dosed Sprague-Dawley rat assessed as ratio of body weight change to day of weight change at 195 umol/kg administered as single dose after 14 days; assay type: organism-based; details: in vivo, po, 336 h
# Rattus norvegicus [9] = assay: AUC (0 to infinity) in intragastrically dosed Sprague-Dawley rat assessed as pyrroloquinazolinediamine level at 47.6 umol/kg administered daily for 3 days measured on day 3; assay type: ADME, organism-based, Plasma; parameters: dose 47.6 umol/kg, time infinity, route intragastric; details: in vivo, po, 72 h
# Rattus norvegicus [10] = assay: Anorexic toxicity in intragastrically dosed Sprague-Dawley rat assessed as ratio of body weight change to day of weight change at 190 umol/kg administered daily for 3 days measured after 14 days; assay type: organism-based; details: in vivo, po, 336 h
# Rattus norvegicus [11] = assay: Elimination half life in intragastrically dosed Sprague-Dawley rat assessed as bisacetamide pyrroloquinazolinediamine level at 95 umol/kg administered as single dose; assay type: ADME, organism-based; details: in vivo, po
# Rattus norvegicus [12] = assay: Anorexic toxicity in intragastrically dosed Sprague-Dawley rat assessed as ratio of body weight change to day of weight change at 1170 umol/kg administered as single dose after 14 days; assay type: organism-based; details: in vivo, po, 336 h
# Rattus norvegicus [13] = assay: Tmax in intragastrically dosed Sprague-Dawley rat assessed as pyrroloquinazolinediamine level at 47.6 umol/kg administered daily for 3 days measured on day 3; assay type: ADME, organism-based; details: in vivo, po, 72 h
# Rattus norvegicus [14] = assay: Elimination half life in intragastrically dosed Sprague-Dawley rat assessed as pyrroloquinazolinediamine level at 95 umol/kg administered as single dose; assay type: ADME, organism-based; details: in vivo, po
# Rattus norvegicus [15] = assay: Anorexic toxicity in intragastrically dosed Sprague-Dawley rat assessed as ratio of body weight change to day of weight change at 23.8 umol/kg administered daily for 3 days measured after 14 days; assay type: organism-based; details: in vivo, po, 336 h
# Rattus norvegicus [16] = assay: AUC in intragastrically dosed Sprague-Dawley rat assessed as monoacetamide pyrroloquinazolinediamine level at 95 umol/kg administered as single dose; assay type: ADME, organism-based, Plasma; details: in vivo, po
# Rattus norvegicus [17] = assay: Anorexic toxicity in intragastrically dosed Sprague-Dawley rat assessed as ratio of body weight change to day of weight change after 14 days; assay type: organism-based; details: in vivo, po, 336 h
# Rattus norvegicus [18] = assay: Anorexic toxicity in intragastrically dosed Sprague-Dawley rat assessed as ratio of body weight change to day of weight change at 1560 umol/kg administered as single dose after 14 days; assay type: organism-based; details: in vivo, po, 336 h
# Rattus norvegicus [19] = assay: AUC (0 to infinity) in intragastrically dosed Sprague-Dawley rat assessed as pyrroloquinazolinediamine level at 47.6 umol/kg administered daily for 3 days measured on day 1; assay type: ADME, organism-based, Plasma; parameters: dose 47.6 umol/kg, time infinity, route intragastric; details: in vivo, po, 72 h
# Rattus norvegicus [20] = assay: Metabolic stability in intragastrically dosed Sprague-Dawley rat assessed as formation of pyrroloquinazolinediamine; assay type: ADME, organism-based; details: in vivo, po
# Rattus norvegicus [21] = assay: Tmax in intragastrically dosed Sprague-Dawley rat assessed as pyrroloquinazolinediamine level at 95 umol/kg administered as single dose; assay type: ADME, organism-based; details: in vivo, po
# [22] = Toxicity in intragastrically dosed Sprague-Dawley rat assessed as maximum tolerated dose; assay type: organism-based; details: in vivo, po
# Rattus norvegicus [23] = assay: Bioavailability in intragastrically dosed Sprague-Dawley rat assessed as pyrroloquinazolinediamine level at 47.6 umol/kg administered daily for 3 days measured on day 3; assay type: ADME, organism-based; details: in vivo, po, 72 h
# Rattus norvegicus [24] = assay: Bioavailability in intragastrically dosed Sprague-Dawley rat assessed as pyrroloquinazolinediamine level at 95 umol/kg administered as single dose; assay type: ADME, organism-based; details: in vivo, po
# Plasma = assay: Metabolic stability in Sprague-Dawley rat plasma assessed as formation of pyrroloquinazolinediamine after 30 mins; assay type: ADME, cell-free; details: 0.5 h
# Rattus norvegicus [25] = assay: Elimination half life in intragastrically dosed Sprague-Dawley rat assessed as monoacetamide pyrroloquinazolinediamine level at 95 umol/kg administered as single dose; assay type: ADME, organism-based; details: in vivo, po
# Rattus norvegicus [26] = assay: Cmax in intragastrically dosed Sprague-Dawley rat assessed as pyrroloquinazolinediamine level at 47.6 umol/kg administered daily for 3 days measured on day 1; assay type: ADME, organism-based; parameters: dose 47.6 umol/kg, route intragastric; details: in vivo, po, 72 h
# Rattus norvegicus [27] = assay: AUC in intragastrically dosed Sprague-Dawley rat assessed as bisacetamide pyrroloquinazolinediamine level at 95 umol/kg administered as single dose; assay type: ADME, organism-based, Plasma; details: in vivo, po
# Rattus norvegicus [28] = assay: Anorexic toxicity in intragastrically dosed Sprague-Dawley rat assessed as ratio of body weight change to day of weight change at 95 umol/kg administered daily for 3 days measured after 14 days; assay type: organism-based; details: in vivo, po, 336 h
# Rattus norvegicus [29] = assay: Total AUC in intragastrically dosed Sprague-Dawley rat assessed as pyrroloquinazolinediamine level at 47.6 umol/kg administered daily for 3 days measured on day 3; assay type: ADME, organism-based; parameters: dose 47.6 umol/kg, route intragastric, time AUCmax; details: in vivo, po, 72 h
# Rattus norvegicus [30] = assay: Toxicity in intragastrically dosed Sprague-Dawley rat at 2340 umol/kg; assay type: organism-based; details: in vivo, po
# Rattus norvegicus [31] = assay: Cmax in intragastrically dosed Sprague-Dawley rat assessed as pyrroloquinazolinediamine level at 95 umol/kg administered as single dose; assay type: ADME, organism-based; parameters: dose 95 umol/kg, route intragastric; details: in vivo, po
# Rattus norvegicus [32] = assay: Tmax in intragastrically dosed Sprague-Dawley rat assessed as pyrroloquinazolinediamine level at 47.6 umol/kg administered daily for 3 days measured on day 1; assay type: ADME, organism-based; details: in vivo, po, 72 h
# Rattus norvegicus [33] = assay: Anorexic toxicity in intragastrically dosed Sprague-Dawley rat assessed as ratio of body weight change to day of weight change at 11.9 umol/kg administered daily for 3 days measured after 14 days; assay type: organism-based; details: in vivo, po, 336 h
# Rattus norvegicus [34] = assay: AUC (0 to infinity) in intragastrically dosed Sprague-Dawley rat assessed as pyrroloquinazolinediamine level at 95 umol/kg administered as single dose; assay type: ADME, organism-based, Plasma; parameters: dose 95 umol/kg, time infinity, route intragastric; details: in vivo, po
# Rattus norvegicus [35] = assay: Toxicity in intragastrically dosed Sprague-Dawley rat assessed as mortality at 2340 umol/kg administered as single dose after 14 days; assay type: organism-based; details: in vivo, po, 336 h
# [36] = Toxicity in intragastrically dosed Sprague-Dawley rat; assay type: organism-based; details: in vivo, po
SMILES,Ratio (Rattus norvegicus [1]),F (Rattus norvegicus [2]),Ratio (Rattus norvegicus [3]),t1/2 (Rattus norvegicus [4]),Cmax (Rattus norvegicus [6]),t1/2 (Rattus norvegicus [7]),Ratio (Rattus norvegicus [8]),AUC (Rattus norvegicus [9]),Ratio (Rattus norvegicus [12]),Tmax (Rattus norvegicus [13]),t1/2 (Rattus norvegicus [14]),Ratio (Rattus norvegicus [15]),ID50 (Rattus norvegicus [17]),AUC (Rattus norvegicus [19]),Tmax (Rattus norvegicus [21]),MTD [22],F (Rattus norvegicus [23]),F (Rattus norvegicus [24]),Cmax (Rattus norvegicus [26]),Ratio (Rattus norvegicus [28]),also measured
CC(=O)N(C(C)=O)c1nc(N(C(C)=O)C(C)=O)c2c(ccc3c2ccn3Cc2ccccc2C(F)(F)F)n1,2.47,16.49%,2.06,12.86 h,30.84 ng/mL,17.66 h,2.55,1250.1 ng·h/mL,2.76,5.67 h,13.2 h,2.61,140.43 µmol/kg,705.9 ng·h/mL,5.33 h,2340 µmol/kg,26.96%,11.45%,31.23 ng/mL,1.18,Ratio (Rattus norvegicus [5]): 1.03; Ratio (Rattus norvegicus [10]): -0.89; t1/2 (Rattus norvegicus [11]): 12.64 h; AUC (Rattus norvegicus [16]): 176.5 ng·h/mL; Ratio (Rattus norvegicus [18]): 2.08; Activity (Rattus norvegicus [20]): 84%; Activity (Plasma): 49%; t1/2 (Rattus norvegicus [25]): 13.16 h; AUC (Rattus norvegicus [27]): 24.9 ng·h/mL; AUC (Rattus norvegicus [29]): 1903.5 ng·h/mL; Activity (Rattus norvegicus [30]): Non-toxic; Cmax (Rattus norvegicus [31]): 60.5 ng/mL; Tmax (Rattus norvegicus [32]): 7 h; Ratio (Rattus norvegicus [33]): 2.46; AUC (Rattus norvegicus [34]): 1047.3 ng·h/mL
CCOC(=O)Nc1nc(NC(=O)OCC)c2c(ccc3c2ccn3Cc2ccccc2C(F)(F)F)n1,2.21,20.45%,0.71,13.29 h,63.36 ng/mL,16.93 h,2.49,1529.6 ng·h/mL,0.84,3.33 h,13.59 h,1.88,60.65 µmol/kg,875.5 ng·h/mL,3.83 h,1170 µmol/kg,31.06%,14.86%,59.46 ng/mL,-0.65,Activity (Rattus norvegicus [35]): Toxic; LD50 [36]: 1570 µmol/kg; AUC (Rattus norvegicus [29]): 2856.1 ng·h/mL; Cmax (Rattus norvegicus [31]): 108.7 ng/mL; Tmax (Rattus norvegicus [32]): 3 h; Ratio (Rattus norvegicus [33]): 2.42; AUC (Rattus norvegicus [34]): 1381.4 ng·h/mL
